For 27 compounds, IC50 results are on record in patent publication US11739100B2, “2,3-dihydro-1h-imidazo{1,2-a}pyrimidin-5-one and this 1,2,3,4-tetrahydropyrimido{1,2-a}pyrimidin-6-one derivatives comprising a substituted morpholine, preparation thereof and pharmaceutical use thereof” (SANOFI, priority 2012, dated 2023).

A value given as a limit tells only on which side of the number the result lay.

T1 sequence (Q8NEB9 whole entry): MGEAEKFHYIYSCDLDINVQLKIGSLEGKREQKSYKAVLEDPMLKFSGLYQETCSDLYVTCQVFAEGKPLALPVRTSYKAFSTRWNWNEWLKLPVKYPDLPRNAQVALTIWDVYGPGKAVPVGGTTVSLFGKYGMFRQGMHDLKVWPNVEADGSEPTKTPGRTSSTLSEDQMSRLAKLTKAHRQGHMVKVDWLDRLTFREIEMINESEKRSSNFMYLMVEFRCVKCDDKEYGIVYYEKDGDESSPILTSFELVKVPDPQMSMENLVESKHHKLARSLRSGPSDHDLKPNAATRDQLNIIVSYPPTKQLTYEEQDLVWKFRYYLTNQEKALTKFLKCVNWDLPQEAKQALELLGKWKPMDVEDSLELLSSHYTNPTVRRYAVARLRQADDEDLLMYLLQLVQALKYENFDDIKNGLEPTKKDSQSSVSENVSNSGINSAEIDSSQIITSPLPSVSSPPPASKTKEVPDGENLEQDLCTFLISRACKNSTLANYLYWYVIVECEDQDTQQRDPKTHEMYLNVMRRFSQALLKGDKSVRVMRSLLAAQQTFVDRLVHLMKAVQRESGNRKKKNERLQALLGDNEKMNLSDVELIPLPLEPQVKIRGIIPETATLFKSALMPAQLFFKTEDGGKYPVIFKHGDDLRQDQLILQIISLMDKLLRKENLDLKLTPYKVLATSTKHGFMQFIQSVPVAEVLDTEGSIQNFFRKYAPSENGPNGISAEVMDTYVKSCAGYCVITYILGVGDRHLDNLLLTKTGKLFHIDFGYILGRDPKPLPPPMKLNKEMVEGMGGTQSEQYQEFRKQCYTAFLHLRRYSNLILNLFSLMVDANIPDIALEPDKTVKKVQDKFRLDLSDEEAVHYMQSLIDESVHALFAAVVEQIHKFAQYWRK

The experiment concerns the target T1, recombinant Vps34 (Homo sapiens, UniProt Q8NEB9).
T1 construct: purchased Invitrogen PV5126
The experiment is described as follows: Phosphorylation of phosphatidylinositol (PI) by Vps34 in vitro, ADP detected by TR-FRET (HTRF Transcreener ADP). The format is biochemical. Conditions: 10 μM ATP, 55 μg/ml PI, approximately 3 nM Vps34, 1 hour at ambient temperature; absolute IC50, mean of two independent experiments; read-out: IC50 activity range. In general terms: TR-FRET usually uses a lanthanide donor and a delayed reading to cut background.
The IC50 is the concentration that inhibits the measured activity by half. `CC(C)C(=O)CN1c2nc(N3CC4CCC(C3)O4)c(F)c(=O)n2CC[C@H]1C(F)(F)F` [Example 274, (S)-3-Fluoro-9-(3-methyl-2-oxobutyl)-2-(8-oxa-3-aza-bicyclo[3.2.1]oct-3-yl)-8-trifluoromethyl-6,7,8,9-tetrahydro-pyrimido[1,2-a]-pyrimidin-4-one]: the IC50 was 10 to 100 nM.

On to `Cc1nc(CN2c3nc(N4CC5CCC(C4)O5)c(F)c(=O)n3CC[C@H]2C(F)(F)F)no1` [Example 275, (S)-3-Fluoro-9-(5-methyl-[1,2,4]oxadiazol-3-yl-methyl)-2-(8-oxa-3-azabicyclo[3.2.1]oct-3-yl)-8-trifluoromethyl-6,7,8,9-tetrahydro-pyrimido[1,2-a]-pyrimidin-4-one], for which the IC50 was in the range of 10 to 100 nM.

For the compound `CC(C)CC(=O)CN1c2nc(N3CCOC[C@H]3C)cc(=O)n2CC[C@H]1C(F)(F)F` [Example 276, (S)-2-((R)-3-Methyl-morpholin-4-yl)-9-(4-methyl-2-oxo-pentyl)-8-trifluoromethyl-6,7,8,9-tetrahydro-pyrimido[1,2-a]-pyrimidin-4-one], the IC50 was below 10 nM.

Consider `CC(C)C(=O)CN1c2nc(N3CCOC[C@@H]3C)c(F)c(=O)n2CC[C@H]1C(F)(F)F` [Example 278, (S)-3-Fluoro-2-((S)-3-methylmorpholin-4-yl)-9-(3-methyl-2-oxo-butyl)-8-trifluoromethyl-6,7,8,9-tetrahydro-pyrimido[1,2-a]-pyrimidin-4-one], for which the IC50 was above 100 nM.

On to `CC(C)CCC(=O)CN1c2nc(N3CCOC[C@H]3C)c(F)c(=O)n2CC[C@H]1C(F)(F)F` [Example 279, (S)-3-Fluoro-2-((R)-3-methylmorpholin-4-yl)-9-(5-methyl-2-oxo-hexyl)-8-trifluoromethyl-6,7,8,9-tetrahydro-pyrimido[1,2-a]-pyrimidin-4-one], for which the IC50 was below 10 nM.

Take `CC(C)CC(=O)CN1c2nc(N3CCOC[C@H]3C)c(F)c(=O)n2CC[C@H]1C(F)(F)F` [Example 280, (S)-3-Fluoro-2-((R)-3-methylmorpholin-4-yl)-9-(4-methyl-2-oxo-pentyl)-8-trifluoromethyl-6,7,8,9-tetrahydro-pyrimido[1,2-a]-pyrimidin-4-one]: the IC50 is below 10 nM.

As for `CCC(CC)C(=O)CN1c2nc(N3CCOC[C@H]3C)cc(=O)n2CC[C@H]1C(F)(F)F` [Example 281, (S)-9-(3-Ethyl-2-oxo-pentyl)-2-((R)-3-methylmorpholin-4-yl)-8-trifluoromethyl-6,7,8,9-tetrahydro-pyrimido[1,2-a]-pyrimidin-4-one], the IC50 is below 10 nM.

In the case of `CCC(CC)C(=O)CN1c2nc(N3CCOC[C@H]3C)c(F)c(=O)n2CC[C@H]1C(F)(F)F` [Example 282, (S)-9-(3-Ethyl-2-oxo-pentyl)-3-fluoro-2-((R)-3-methylmorpholin-4-yl)-8-trifluoromethyl-6,7,8,9-tetrahydro-pyrimido[1,2-a]-pyrimidin-4-one], the IC50 was below 10 nM.

Turning to `COC(=O)CN1c2nc(N3CCOC[C@H]3C)c(F)c(=O)n2CC[C@H]1C(F)(F)F` [Example 283, [(S)-7-Fluoro-8-((R)-3-methylmorpholin-4-yl)-6-oxo-2-trifluoromethyl-3,4-dihydro-2H,6H-pyrimido[1,2-a]-pyrimidin-1-yl]acetic acid methyl ester], the IC50 is below 10 nM.

Consider `CC(C)C(O)CN1c2nc(N3CCOC[C@H]3C)cc(=O)n2CC[C@H]1C(F)(F)F` (stereo partly drawn) [Example 287, (S)-9-(2-Hydroxy-3-methylbutyl)-2-((R)-3-methylmorpholin-4-yl)-8-trifluoromethyl-6,7,8,9-tetrahydro-pyrimido[1,2-a]-pyrimidin-4-one], for which the IC50 was below 10 nM.

For the compound `CC(C)CCC(=O)CN1c2nc(N3CCOC[C@H]3C)cc(=O)n2CC[C@H]1C(F)(F)F` [Example 290, (S)-2-((R)-3-Methyl-morpholin-4-yl)-9-(5-methyl-2-oxo-hexyl)-8-trifluoromethyl-6,7,8,9-tetrahydro-pyrimido[1,2-a]-pyrimidin-4-one], the IC50 is below 10 nM.

Turning to `CCC(C)C(=O)CN1c2nc(N3CCOC[C@H]3C)cc(=O)n2CC[C@H]1C(F)(F)F` (stereo partly drawn) [Example 291, (S)-2-((R)-3-Methyl-morpholin-4-yl)-9-(3-methyl-2-oxo-pentyl)-8-trifluoromethyl-6,7,8,9-tetrahydro-pyrimido[1,2-a]-pyrimidin-4-one], the IC50 was below 10 nM.

Take `C[C@@H]1COCCN1c1cc(=O)n2c(n1)N(Cc1nc(C(F)(F)F)no1)[C@H](C(F)(F)F)CC2` [Example 292, (S)-2-((R)-3-Methyl-morpholin-4-yl)-8-trifluoromethyl-9-(3-trifluoromethyl-[1,2,4]oxadiazol-5-yl-methyl)-6,7,8,9-tetrahydro-pyrimido[1,2-a]-pyrimidin-4-one]: the IC50 was below 10 nM.

Turning to `C[C@@H]1COCCN1c1nc2n(c(=O)c1F)CC[C@@H](C(F)(F)F)N2CC(=O)N1CC2(COC2)C1` [Example 293, (S)-3-Fluoro-2-((R)-3-methylmorpholin-4-yl)-9-[2-(2-oxa-6-aza-spiro[3.3]hept-6-yl)-2-oxoethyl]-8-trifluoromethyl-6,7,8,9-tetrahydro-pyrimido[1,2-a]-pyrimidin-4-one], the 50% inhibitory concentration (IC50) is below 10 nM.

As to `Cc1cc(C(=O)CN2c3nc(N4CCOC[C@H]4C)c(F)c(=O)n3CC[C@H]2C(F)(F)F)no1` [Example 294, (S)-3-Fluoro-9-[2-(5-methylisoxazol-3-yl)-2-oxoethyl]-2-((R)-3-methylmorpholin-4-yl)-8-trifluoromethyl-6,7,8,9-tetrahydro-pyrimido[1,2-a]-pyrimidin-4-one], the IC50 was below 10 nM.

Consider `C[C@@H]1COCCN1c1cc(=O)n2c(n1)N(C[C@H](F)c1ccccc1)[C@H](C(F)(F)F)CC2` [Example 295, (S)-9-(2-Fluoro-2-phenylethyl)-2-((R)-3-methylmorpholin-4-yl)-8-trifluoromethyl-6,7,8,9-tetrahydro-pyrimido[1,2-a]-pyrimidin-4-one], for which the IC50 was below 10 nM.

As to `C[C@@H]1COCCN1c1nc2n(c(=O)c1F)CC[C@@H](C(F)(F)F)N2Cc1ccon1` [Example 296, (S)-3-Fluoro-9-isoxazol-3-ylmethyl-2-((R)-3-methyl-morpholin-4-yl)-8-trifluoromethyl-6,7,8,9-tetrahydro-pyrimido[1,2-a]-pyrimidin-4-one], the IC50 is below 10 nM.

In the case of `C[C@@H]1COCCN1c1nc2n(c(=O)c1F)CC[C@@H](C(F)(F)F)N2Cc1ccnn1C(F)F` [Example 297, (S)-9-(2-Difluoromethyl-2H-pyrazol-3-ylmethyl)-3-fluoro-2-((R)-3-methyl-morpholin-4-yl)-8-trifluoromethyl-6,7,8,9-tetrahydro-pyrimido[1,2-a]-pyrimidin-4-one], the IC50 is below 10 nM.

On to `C[C@@H]1COCCN1c1cc(=O)n2c(n1)N(Cc1ccon1)C(C)(C)CC2` [Example 298, 9-Isoxazol-3-ylmethyl-8,8-dimethyl-2-((R)-3-methylmorpholin-4-yl)-6,7,8,9-tetrahydro-pyrimido[1,2-a]-pyrimidin-4-one], for which the IC50 was in the range of 10 to 100 nM.

For `Cc1cc(CN2c3nc(N4CCOC[C@H]4C)c(F)c(=O)n3CC[C@H]2C(F)(F)F)on1` [Example 299, (S)-3-Fluoro-9-(3-methylisoxazol-5-yl-methyl)-2-((R)-3-methylmorpholin-4-yl)-8-trifluoromethyl-6,7,8,9-tetrahydro-pyrimido[1,2-a]-pyrimidin-4-one], the IC50 is below 10 nM.

As to `CC(C)OCCN1c2nc(N3CCOC[C@H]3C)cc(=O)n2CC[C@H]1C(F)(F)F` [Example 300, (S)-9-(2-Isopropoxy-ethyl)-2-((R)-3-methyl-morpholin-4-yl)-8-trifluoromethyl-6,7,8,9-tetrahydro-pyrimido[1,2-a]-pyrimidin-4-one], the IC50 is below 10 nM.

With `C[C@@H]1COCCN1c1cc(=O)n2c(n1)N(c1cccnc1)[C@H](C(F)(F)F)CC2` [Example 301, (S)-2-((R)-3-Methyl-morpholin-4-yl)-9-pyridin-3-yl-8-trifluoromethyl-6,7,8,9-tetrahydro-pyrimido[1,2-a]-pyrimidin-4-one], the IC50 was below 10 nM.

`C[C@@H]1COCCN1c1cc(=O)n2c(n1)N(c1ccc(C3CC3)nc1)[C@H](C(F)(F)F)CC2` [Example 302, (S)-9-(6-Cyclopropyl-pyridin-3-yl)-2-((R)-3-methylmorpholin-4-yl)-8-trifluoromethyl-6,7,8,9-tetrahydro-pyrimido[1,2-a]-pyrimidin-4-one]: the concentration for half-maximal inhibition (IC50) was below 10 nM.

As for `C[C@@H]1COCCN1c1cc(C(=O)CN2c3nc(N4CCOC[C@H]4C)cc(=O)n3CC[C@H]2C(F)(F)F)ccn1` [Example 303, (S)-2-((R)-3-Methyl-morpholin-4-yl)-9-{2-[2-((R)-3-methyl-morpholin-4-yl)pyridin-4-yl]-2-oxoethyl}-8-trifluoromethyl-6,7,8,9-tetrahydropyrimido[1,2-a]pyrimidin-4-one], the IC50 was below 10 nM.

Consider `C[C@@H]1COCCN1c1cc(=O)n2c(n1)N(CC(=O)C1(C)CCOCC1)[C@H](C(F)(F)F)CC2` [Example 310, (S)-2-((R)-3-Methyl-morpholin-4-yl)-9-[2-(4-methyl-tetrahydro-pyran-4-yl)-2-oxo-ethyl]-8-trifluoromethyl-6,7,8,9-tetrahydro-pyrimido[1,2-a]-pyrimidin-4-one], for which the IC50 is below 10 nM.

For the compound `Cc1cc(C(=O)CN2c3nc(N4CCOC[C@H]4C)cc(=O)n3CC[C@H]2C(F)(F)F)no1` [Example 311, (S)-9-[2-(5-Methyl-isoxazol-3-yl)-2-oxo-ethyl]-2-((R)-3-methyl-morpholin-4-yl)-8-trifluoromethyl-6,7,8,9-tetrahydro-pyrimido[1,2-a]-pyrimidin-4-one], the IC50 was below 10 nM.

With `C[C@@H]1COC[C@@H](C)N1c1cc(=O)n2c(n1)N(Cc1cnc(Cl)s1)[C@H](C(F)(F)F)CC2` [Example 312, (S)-9-(2-Chloro-thiazol-5-ylmethyl)-2-((3R,5R)-3,5-dimethyl-morpholin-4-yl)-8-trifluoromethyl-6,7,8,9-tetrahydro-pyrimido[1,2-a]-pyrimidin-4-one], the IC50 lay in the range of 10 to 100 nM.
